From the supplement of paper PMC10307832 come the findings set out here.

Holding throughout (assay): relative viability (nuclei count vs DMSO), 5 days (fraction); higher = more cells survive
Compound in the assay “BAM7 + OSI-027”: CCOC1=CC=CC=C1N=NC2=C(NN(C2=O)C3=NC(=CS3)C4=CC=CC=C4)C [BAM7] + COc1cccc2cc(-c3nc([C@H]4CC[C@H](C(=O)O)CC4)n4ncnc(N)c34)[nH]c12 [OSI-027] (partner 0.5 µM)
In a few lines:
(§1)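 Five library-drug doses in √10 steps were combined with a fixed anchor-drug dose, or a single drug was given alone, by pin tool to lung cancer cell lines in 1536-well plates the day after seeding. Nuclei were stained and counted after 5 days. Relative viability is the nuclei count in treated wells over that in vehicle wells, taken as the median of duplicate plates.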

Compound in assay [1]: CCn1c(-c2nonc2N)nc2c(C#CC(C)(C)O)ncc(OC[C@H]3CCCNC3)c21 + CCNC(=O)c1noc(-c2cc(C(C)C)c(O)cc2O)c1-c1ccc(CN2CCOCC2)cc1 [Luminespib] (partner 0.01 µM)
In short, it runs like this:
as §1

Compound in assay [2]: CCn1c(-c2nonc2N)nc2c(C#CC(C)(C)O)ncc(OC[C@H]3CCCNC3)c21 + CS(=O)(=O)CCNCc1ccc(-c2ccc3ncnc(Nc4ccc(OCc5cccc(F)c5)c(Cl)c4)c3c2)o1 [Lapatinib] (partner 2 µM)
In short, it runs like this: as §1

Compound in assay [3]: CCn1c(-c2nonc2N)nc2c(C#CC(C)(C)O)ncc(OC[C@H]3CCCNC3)c21 + NC(=O)Nc1cc(-c2cccc(F)c2)sc1C(=O)N[C@H]1CCCNC1 [AZD7762] (partner 0.2 µM)
In a few lines: as §1

With LXF-289, the relative viability with BAM7 + OSI-027 (first compound 0.5 µM) was 0.923; with BAM7 + OSI-027 (first compound 5 µM), 0.909; in the assay with BAM7 + OSI-027 (first compound 15.81 µM), 0.761; with BAM7 + OSI-027 (first compound 50 µM), 0.802; in assay [1] (first compound 0.01 µM), 0.604; in assay [1] (first compound 0.03162 µM), 0.822. Moreover, the relative viability in assay [1] (first compound 0.1 µM) is 0.627; in assay [1] (first compound 0.3162 µM), 0.617; in assay [1] (first compound 1 µM) it was 0.701; in assay [2] (first compound 0.01 µM), 0.921; in assay [2] (first compound 0.03162 µM), 0.891; in assay [2] (first compound 0.1 µM) it was 0.934. Besides, the relative viability in assay [2] (first compound 0.3162 µM) stood at 0.871; in assay [2] (first compound 1 µM) it was 0.88; in assay [3] (first compound 0.01 µM), 1.2; in assay [3] (first compound 0.03162 µM), 1.15; in assay [3] (first compound 0.1 µM) it was 1.11; in assay [3] (first compound 0.3162 µM) it was 1.06. Moreover, the relative viability in assay [3] (first compound 1 µM) is 1.1.

For NCI-H23, the relative viability with BAM7 + OSI-027 (first compound 0.5 µM) amounted to 0.492; in the assay with BAM7 + OSI-027 (first compound 5 µM), 0.561; with BAM7 + OSI-027 (first compound 15.81 µM), 0.451; in the assay with BAM7 + OSI-027 (first compound 50 µM), 0.526; in assay [1] (first compound 0.01 µM), 0.235; in assay [1] (first compound 0.03162 µM), 0.202. For the same cell line, the relative viability amounted to 0.242 in assay [1] (first compound 0.1 µM); 0.219 in assay [1] (first compound 0.3162 µM); 0.237 in assay [1] (first compound 1 µM); 1.07 in assay [2] (first compound 0.01 µM); 1.05 in assay [2] (first compound 0.03162 µM); 1.14 in assay [2] (first compound 0.1 µM). Also, the relative viability came to 1.17 in assay [2] (first compound 0.3162 µM); 0.776 in assay [2] (first compound 1 µM); 0.222 in assay [3] (first compound 0.01 µM); 0.268 in assay [3] (first compound 0.03162 µM); 0.228 in assay [3] (first compound 0.1 µM); 0.208 in assay [3] (first compound 0.3162 µM). In addition, the relative viability in assay [3] (first compound 1 µM) was determined as 0.265.

For NCI-H322M, the relative viability with BAM7 + OSI-027 (first compound 0.5 µM) turned out to be 0.576; in the assay with BAM7 + OSI-027 (first compound 5 µM) it was 0.617; with BAM7 + OSI-027 (first compound 15.81 µM), 0.57; in the assay with BAM7 + OSI-027 (first compound 50 µM), 0.65; in assay [1] (first compound 0.01 µM), 0.784; in assay [1] (first compound 0.03162 µM), 0.847. The relative viability is 0.855 in assay [1] (first compound 0.1 µM); 0.665 in assay [1] (first compound 0.3162 µM); 0.682 in assay [1] (first compound 1 µM); 0.562 in assay [2] (first compound 0.01 µM); 0.608 in assay [2] (first compound 0.03162 µM); 0.394 in assay [2] (first compound 0.1 µM). Further, the relative viability was found to be 0.614 in assay [2] (first compound 0.3162 µM); 0.524 in assay [2] (first compound 1 µM); 0.591 in assay [3] (first compound 0.01 µM); 0.661 in assay [3] (first compound 0.03162 µM); 0.562 in assay [3] (first compound 0.1 µM); 0.516 in assay [3] (first compound 0.3162 µM). Also, the relative viability in assay [3] (first compound 1 µM) worked out at 0.625.

With NCI-H358, the relative viability was found to be 0.832 in the assay with BAM7 + OSI-027 (first compound 0.5 µM); 0.899 with BAM7 + OSI-027 (first compound 5 µM); 0.796 with BAM7 + OSI-027 (first compound 15.81 µM); 0.908 with BAM7 + OSI-027 (first compound 50 µM); 0.375 in assay [1] (first compound 0.01 µM); 0.403 in assay [1] (first compound 0.03162 µM). Moreover, the relative viability in assay [1] (first compound 0.1 µM) came to 0.279; in assay [1] (first compound 0.3162 µM) it was 0.257; in assay [1] (first compound 1 µM), 0.419; in assay [2] (first compound 0.01 µM) it was 0.453; in assay [2] (first compound 0.03162 µM) it was 0.485; in assay [2] (first compound 0.1 µM), 0.449. The relative viability is 0.4 in assay [2] (first compound 0.3162 µM); 0.398 in assay [2] (first compound 1 µM); 0.478 in assay [3] (first compound 0.01 µM); 0.386 in assay [3] (first compound 0.03162 µM); 0.684 in assay [3] (first compound 0.1 µM); 0.518 in assay [3] (first compound 0.3162 µM). The relative viability in assay [3] (first compound 1 µM) was determined as 0.512.
